Measurements as given in patent US20240000794A1, “LACTAM AND LACTONE DERIVATIVES FOR USE IN THE TREATMENT OF A VIRAL INFECTION SUCH AS COVID-19” (UNIVERSITÉ CATHOLIQUE DE LOUVAIN, priority 2020, published 2024).
Read-outs that look alike come from different tables or passages of the source.

Assays:
SARS-CoV-2 Mpro = SARS-CoV-2 Mpro (Severe acute respiratory syndrome coronavirus 2, UniProt P0DTD1); format: biochemical
SARS-CoV-2 [1] = format: cell-based; details: 100 μM compound, 24 hours post-infection
SARS-CoV-2 [2] = format: cell-based; details: Caco-2 cells, MOI 0.01, 24 hours post-infection
SARS-CoV-2 [3] = format: cell-based; details: Caco-2 cells; for reduction of virus production in the supernatants: after 8, 12 and 24 h, at concentrations as low as 1μM; for reduction of SARS-Cov2 RNA levels in infected cells: after 4 hours
SARS-CoV-2 [4] = format: cell-based; details: Calu-3 human lung cells, MOI 0.01, 24 hours post-infection
SARS-CoV-2 [5] = format: cell-based; details: primary bronchial epithelial cells, 10 μM or 1 μM, 48 h post-infection
SARS-CoV-2 [6] = format: cell-based; details: primary nasal epithelial cells, 10 μM or 1 μM, 48 h post-infection
[7] = tested on: syncytia formation in SARS-CoV-2 infected Vero cells; format: cell-based
[8] = tested on: syncytia formation in SARS-CoV-2 infected A549-ACE2/TMPRSS2 cells; format: cell-based
HCoV-OC43 = format: cell-based; details: 10 μM, HRT-18G cells

With `O=C1CSC[C@@H](C(=O)O)N1` [lactam 2, (R)-5-oxothiomorpholine-3-carboxylic acid] the “inhibition of SARS-CoV-2 Mpro” value (SARS-CoV-2 Mpro; 10 μM compound, Mpro at 2 μM) was “about 50%”, the “inhibition of SARS-CoV-2 Mpro” value (SARS-CoV-2 Mpro; 100 μM compound) was “complete inhibition” and the “infectivity of SARS-CoV2 in Vero cells” value (SARS-CoV-2 [1]) was “reducing the infectivity”. For the same molecule, the “lowest concentration reducing the infectivity of SARS-CoV-2” value (SARS-CoV-2 [2]) was 45 nM, the “reduction of virus production in the supernatants” value (SARS-CoV-2 [3]) was “about 100 fold” and the “reduction of SARS-Cov2 RNA levels in infected cells” value (SARS-CoV-2 [3]) was “about 20%”. The “lowest concentration reducing the infectivity of SARS-CoV-2” value (SARS-CoV-2 [4]) was 45 nM, the “SARS-Cov2 RNA levels in infected cells” value (SARS-CoV-2 [5]) was “reduction in SARS-Cov2 RNA levels” and the “virus production (supernatants titered on Vero cells)” value (SARS-CoV-2 [5]) was “reduction of virus production”. For the same molecule, the “SARS-Cov2 RNA levels in infected cells” value (SARS-CoV-2 [6]) was “reduction in SARS-Cov2 RNA levels”, the “virus production (supernatants titered on Vero cells)” value (SARS-CoV-2 [6]) was “reduction of virus production” and the “syncytia formation (fusion index)” value [7] was “reducing syncytia formation”. The “syncytia formation (fusion index)” value [8] was “reducing syncytia formation” and the “activity on HCov-OC43” value (HCoV-OC43) was “active”.
`O=C1CCC[C@@H](C(=O)O)N1` [lactam 3, (S)-6-oxopiperidine-2-carboxylic acid] was tested, and the “lowest concentration reducing the infectivity of SARS-CoV-2” value (SARS-CoV-2 [2]) was 15 nM, the “reduction of virus production in the supernatants” value (SARS-CoV-2 [3]) was “about 100 fold” and the “reduction of SARS-Cov2 RNA levels in infected cells” value (SARS-CoV-2 [3]) was “about 20%”.
